Measurements from patent publication US9084828B2, “Oligomer-protein tyrosine kinase inhibitor conjugates” (Nektar Therapeutics, priority 2009, dated 2015).

Columns and labels:
Format in all cases: biochemical
ABL(Q252H) = ABL(Q252H) (Homo sapiens, UniProt P00519, Q252H); test: Activity against various protein tyrosine kinases: ABL(Q252H)
Protocol: (§1) Using techniques know those of ordinary skill in the art, compounds were tested for activity against various protein tyrosine kinases.

ABL(T315I) = ABL(T315I) (Homo sapiens, UniProt P00519, T315I); test: Activity against various protein tyrosine kinases: ABL(T315I)
Protocol: as §1

CK1d = CK1d (Homo sapiens, UniProt P48730); test: Activity against various protein tyrosine kinases: CK1d
FGFR3 = FGFR3 (Homo sapiens, UniProt P22607); test: Activity against various protein tyrosine kinases: FGFR3
FGFR4 = FGFR4 (Homo sapiens, UniProt P22455); test: Activity against various protein tyrosine kinases: FGFR4
Flt3(D835Y) = target: T1, Flt3(D835Y) (Homo sapiens, UniProt P36888, D835Y); test: Activity against various protein tyrosine kinases: Flt3(D835Y)
T1 sequence (P36888 27-993 D835Y): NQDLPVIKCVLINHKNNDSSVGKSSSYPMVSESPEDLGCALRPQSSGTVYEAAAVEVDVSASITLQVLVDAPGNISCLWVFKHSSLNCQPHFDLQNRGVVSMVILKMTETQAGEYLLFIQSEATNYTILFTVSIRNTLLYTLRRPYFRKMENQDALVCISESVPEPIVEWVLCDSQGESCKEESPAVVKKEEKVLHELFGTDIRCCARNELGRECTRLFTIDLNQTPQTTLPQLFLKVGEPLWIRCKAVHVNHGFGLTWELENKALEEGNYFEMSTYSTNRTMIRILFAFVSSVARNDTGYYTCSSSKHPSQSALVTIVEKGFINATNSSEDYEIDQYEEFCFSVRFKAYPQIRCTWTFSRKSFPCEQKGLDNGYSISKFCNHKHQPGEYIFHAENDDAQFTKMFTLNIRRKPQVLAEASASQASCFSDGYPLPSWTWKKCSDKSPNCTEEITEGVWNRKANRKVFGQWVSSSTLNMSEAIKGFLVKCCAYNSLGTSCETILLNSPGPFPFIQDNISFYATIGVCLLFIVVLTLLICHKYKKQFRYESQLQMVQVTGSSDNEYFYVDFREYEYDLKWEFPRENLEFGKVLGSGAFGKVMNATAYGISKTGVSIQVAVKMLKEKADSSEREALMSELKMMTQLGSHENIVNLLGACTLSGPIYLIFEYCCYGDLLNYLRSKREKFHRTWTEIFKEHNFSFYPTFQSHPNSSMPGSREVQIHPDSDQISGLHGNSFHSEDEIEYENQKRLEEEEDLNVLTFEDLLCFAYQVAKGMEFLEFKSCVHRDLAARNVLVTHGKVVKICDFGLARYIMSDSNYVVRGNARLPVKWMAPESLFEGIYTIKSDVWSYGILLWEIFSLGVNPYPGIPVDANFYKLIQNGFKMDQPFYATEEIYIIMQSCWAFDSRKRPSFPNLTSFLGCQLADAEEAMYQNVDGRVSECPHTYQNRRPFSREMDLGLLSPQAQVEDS
Protocol: as §1

IKK-beta = target: T2, IKK-beta (Homo sapiens, UniProt O14920); test: Activity against various protein tyrosine kinases: IKK-beta
T2 sequence (O14920 1-756): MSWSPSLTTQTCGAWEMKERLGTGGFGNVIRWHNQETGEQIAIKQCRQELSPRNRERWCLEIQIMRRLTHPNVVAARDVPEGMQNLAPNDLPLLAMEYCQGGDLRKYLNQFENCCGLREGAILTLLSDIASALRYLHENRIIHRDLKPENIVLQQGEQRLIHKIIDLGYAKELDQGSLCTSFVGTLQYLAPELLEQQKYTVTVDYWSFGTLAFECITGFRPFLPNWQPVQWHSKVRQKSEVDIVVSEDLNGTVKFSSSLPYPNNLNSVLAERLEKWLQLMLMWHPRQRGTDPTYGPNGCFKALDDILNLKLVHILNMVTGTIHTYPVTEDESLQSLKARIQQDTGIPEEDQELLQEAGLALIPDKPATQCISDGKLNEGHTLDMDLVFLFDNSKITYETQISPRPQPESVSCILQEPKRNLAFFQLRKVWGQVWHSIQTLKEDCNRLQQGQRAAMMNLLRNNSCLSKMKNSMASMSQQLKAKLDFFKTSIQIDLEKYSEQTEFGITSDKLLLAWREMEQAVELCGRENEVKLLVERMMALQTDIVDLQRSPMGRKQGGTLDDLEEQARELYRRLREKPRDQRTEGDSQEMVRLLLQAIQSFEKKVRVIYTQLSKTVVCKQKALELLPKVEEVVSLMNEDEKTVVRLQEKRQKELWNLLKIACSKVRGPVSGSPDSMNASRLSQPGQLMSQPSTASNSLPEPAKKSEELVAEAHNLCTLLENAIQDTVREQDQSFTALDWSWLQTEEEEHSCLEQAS

LCK = LCK (Homo sapiens, UniProt P06239); test: Activity against various protein tyrosine kinases: LCK
MAPKAPK2 = MAPKAPK2 (Homo sapiens, UniProt P49137); test: Activity against various protein tyrosine kinases: MAPKAPK2
p38-beta2 = p38-beta2 (Homo sapiens, UniProt Q15759); test: Activity against various protein tyrosine kinases: p38-beta2
PDGFR_alpha = PDGFR_alpha (Homo sapiens, UniProt P16234); test: Activity against various protein tyrosine kinases: PDGFR_alpha
TSSK2 = target: T3, TSSK2 (Homo sapiens, UniProt Q96PF2); test: Activity against various protein tyrosine kinases: TSSK2
T3 sequence (Q96PF2 1-358): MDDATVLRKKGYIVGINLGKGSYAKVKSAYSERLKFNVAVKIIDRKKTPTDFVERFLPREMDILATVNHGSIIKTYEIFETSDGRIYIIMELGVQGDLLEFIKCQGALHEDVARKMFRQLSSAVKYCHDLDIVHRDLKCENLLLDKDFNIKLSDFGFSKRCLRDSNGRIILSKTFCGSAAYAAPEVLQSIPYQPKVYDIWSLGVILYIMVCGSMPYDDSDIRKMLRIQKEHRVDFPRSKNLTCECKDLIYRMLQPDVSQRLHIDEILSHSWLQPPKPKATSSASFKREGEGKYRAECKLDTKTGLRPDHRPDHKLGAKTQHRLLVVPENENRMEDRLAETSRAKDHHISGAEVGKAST

YES = YES (Homo sapiens, UniProt P07947); test: Activity against various protein tyrosine kinases: YES
YES, sequence (P07947 whole entry, species assumed): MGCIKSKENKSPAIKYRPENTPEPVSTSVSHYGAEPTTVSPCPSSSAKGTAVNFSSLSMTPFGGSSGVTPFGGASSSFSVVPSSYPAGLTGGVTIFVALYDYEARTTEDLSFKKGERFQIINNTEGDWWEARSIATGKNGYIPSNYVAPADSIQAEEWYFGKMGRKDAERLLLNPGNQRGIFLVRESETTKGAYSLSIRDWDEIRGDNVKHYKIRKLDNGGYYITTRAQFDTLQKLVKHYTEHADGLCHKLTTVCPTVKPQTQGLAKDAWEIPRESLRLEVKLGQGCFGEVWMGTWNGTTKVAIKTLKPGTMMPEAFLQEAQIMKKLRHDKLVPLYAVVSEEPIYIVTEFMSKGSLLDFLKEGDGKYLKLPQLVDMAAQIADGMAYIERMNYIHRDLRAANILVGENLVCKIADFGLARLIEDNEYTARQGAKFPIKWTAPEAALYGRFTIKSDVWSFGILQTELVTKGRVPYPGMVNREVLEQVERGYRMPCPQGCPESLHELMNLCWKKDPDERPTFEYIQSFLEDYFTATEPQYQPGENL

PDGFR_alpha, sequence (P16234 24-1089, species assumed): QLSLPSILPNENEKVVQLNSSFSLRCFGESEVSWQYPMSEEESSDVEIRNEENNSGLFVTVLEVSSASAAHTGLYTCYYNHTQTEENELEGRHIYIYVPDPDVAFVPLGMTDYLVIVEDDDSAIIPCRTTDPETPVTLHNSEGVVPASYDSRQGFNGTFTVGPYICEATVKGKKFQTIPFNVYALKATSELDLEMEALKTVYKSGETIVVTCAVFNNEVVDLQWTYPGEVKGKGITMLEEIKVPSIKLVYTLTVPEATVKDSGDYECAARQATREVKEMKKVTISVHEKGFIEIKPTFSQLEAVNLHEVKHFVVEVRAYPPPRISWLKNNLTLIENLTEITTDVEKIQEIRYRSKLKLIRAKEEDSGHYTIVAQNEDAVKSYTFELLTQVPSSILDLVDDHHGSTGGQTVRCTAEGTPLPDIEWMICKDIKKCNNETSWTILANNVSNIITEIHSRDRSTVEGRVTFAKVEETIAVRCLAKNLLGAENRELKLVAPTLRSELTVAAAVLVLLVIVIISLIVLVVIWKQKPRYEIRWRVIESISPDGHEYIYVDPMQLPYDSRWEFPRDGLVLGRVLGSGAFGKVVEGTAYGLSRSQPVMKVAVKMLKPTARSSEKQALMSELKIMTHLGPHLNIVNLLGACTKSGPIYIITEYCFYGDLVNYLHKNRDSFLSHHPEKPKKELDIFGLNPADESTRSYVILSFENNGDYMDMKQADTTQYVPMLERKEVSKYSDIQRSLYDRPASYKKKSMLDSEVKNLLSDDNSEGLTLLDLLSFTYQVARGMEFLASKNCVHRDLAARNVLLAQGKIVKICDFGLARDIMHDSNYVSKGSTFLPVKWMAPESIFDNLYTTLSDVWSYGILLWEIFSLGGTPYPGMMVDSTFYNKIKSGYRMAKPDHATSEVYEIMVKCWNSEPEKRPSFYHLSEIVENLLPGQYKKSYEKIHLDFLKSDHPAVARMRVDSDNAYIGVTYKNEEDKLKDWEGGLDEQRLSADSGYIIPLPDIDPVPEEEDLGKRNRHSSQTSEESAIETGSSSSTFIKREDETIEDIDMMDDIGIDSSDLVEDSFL
p38-beta2, sequence (Q15759 whole entry): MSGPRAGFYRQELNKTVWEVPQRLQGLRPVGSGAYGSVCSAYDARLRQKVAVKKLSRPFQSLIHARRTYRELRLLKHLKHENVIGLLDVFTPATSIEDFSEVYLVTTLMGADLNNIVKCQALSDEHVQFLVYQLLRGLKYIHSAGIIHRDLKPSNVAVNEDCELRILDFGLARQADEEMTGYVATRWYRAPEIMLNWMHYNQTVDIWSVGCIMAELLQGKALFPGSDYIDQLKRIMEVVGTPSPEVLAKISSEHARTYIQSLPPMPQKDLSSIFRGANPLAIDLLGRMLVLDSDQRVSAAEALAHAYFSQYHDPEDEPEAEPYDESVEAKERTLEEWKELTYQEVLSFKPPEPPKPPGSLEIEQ
FGFR3, sequence (P22607 23-806, species assumed): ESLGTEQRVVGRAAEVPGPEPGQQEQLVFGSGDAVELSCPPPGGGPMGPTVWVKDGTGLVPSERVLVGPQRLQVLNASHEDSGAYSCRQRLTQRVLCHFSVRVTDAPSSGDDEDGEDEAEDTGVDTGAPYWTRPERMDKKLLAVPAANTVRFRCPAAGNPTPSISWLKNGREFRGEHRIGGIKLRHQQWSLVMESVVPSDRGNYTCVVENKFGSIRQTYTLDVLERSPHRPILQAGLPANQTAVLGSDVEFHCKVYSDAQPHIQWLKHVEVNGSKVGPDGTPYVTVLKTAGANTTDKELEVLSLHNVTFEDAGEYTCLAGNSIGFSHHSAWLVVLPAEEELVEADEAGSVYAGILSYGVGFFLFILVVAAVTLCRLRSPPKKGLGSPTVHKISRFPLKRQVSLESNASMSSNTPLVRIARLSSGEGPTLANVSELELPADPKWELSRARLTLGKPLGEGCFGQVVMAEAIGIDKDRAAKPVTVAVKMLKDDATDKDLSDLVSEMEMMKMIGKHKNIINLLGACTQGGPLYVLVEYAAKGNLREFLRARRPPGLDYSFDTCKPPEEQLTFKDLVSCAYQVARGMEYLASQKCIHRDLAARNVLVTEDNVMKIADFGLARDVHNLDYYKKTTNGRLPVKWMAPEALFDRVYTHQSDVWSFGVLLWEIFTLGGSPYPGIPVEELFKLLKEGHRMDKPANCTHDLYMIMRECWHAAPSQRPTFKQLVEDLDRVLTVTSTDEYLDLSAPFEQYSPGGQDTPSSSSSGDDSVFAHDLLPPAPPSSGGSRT
FGFR4, sequence (P22455 22-802, species assumed): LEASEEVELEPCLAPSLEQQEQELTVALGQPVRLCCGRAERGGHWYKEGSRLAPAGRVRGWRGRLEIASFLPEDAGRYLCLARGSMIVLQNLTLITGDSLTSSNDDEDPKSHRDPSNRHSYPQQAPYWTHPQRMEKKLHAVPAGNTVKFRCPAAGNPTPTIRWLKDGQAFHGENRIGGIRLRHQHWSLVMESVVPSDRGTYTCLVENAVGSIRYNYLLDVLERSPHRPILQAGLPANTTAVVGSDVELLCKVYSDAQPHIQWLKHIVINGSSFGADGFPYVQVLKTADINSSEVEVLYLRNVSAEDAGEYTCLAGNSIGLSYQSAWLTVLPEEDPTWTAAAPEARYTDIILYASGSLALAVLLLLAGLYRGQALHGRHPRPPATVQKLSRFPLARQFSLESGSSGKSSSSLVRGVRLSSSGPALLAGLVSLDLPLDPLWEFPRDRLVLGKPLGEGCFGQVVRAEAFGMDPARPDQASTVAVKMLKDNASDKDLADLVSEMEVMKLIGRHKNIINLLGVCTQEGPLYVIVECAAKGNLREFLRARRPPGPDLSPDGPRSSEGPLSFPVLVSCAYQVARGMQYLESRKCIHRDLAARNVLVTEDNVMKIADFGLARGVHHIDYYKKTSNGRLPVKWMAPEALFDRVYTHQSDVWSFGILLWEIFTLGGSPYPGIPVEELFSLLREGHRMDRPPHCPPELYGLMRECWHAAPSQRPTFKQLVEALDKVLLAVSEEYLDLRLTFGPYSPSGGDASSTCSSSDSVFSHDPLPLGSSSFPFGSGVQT
LCK, sequence (P06239 whole entry, species assumed): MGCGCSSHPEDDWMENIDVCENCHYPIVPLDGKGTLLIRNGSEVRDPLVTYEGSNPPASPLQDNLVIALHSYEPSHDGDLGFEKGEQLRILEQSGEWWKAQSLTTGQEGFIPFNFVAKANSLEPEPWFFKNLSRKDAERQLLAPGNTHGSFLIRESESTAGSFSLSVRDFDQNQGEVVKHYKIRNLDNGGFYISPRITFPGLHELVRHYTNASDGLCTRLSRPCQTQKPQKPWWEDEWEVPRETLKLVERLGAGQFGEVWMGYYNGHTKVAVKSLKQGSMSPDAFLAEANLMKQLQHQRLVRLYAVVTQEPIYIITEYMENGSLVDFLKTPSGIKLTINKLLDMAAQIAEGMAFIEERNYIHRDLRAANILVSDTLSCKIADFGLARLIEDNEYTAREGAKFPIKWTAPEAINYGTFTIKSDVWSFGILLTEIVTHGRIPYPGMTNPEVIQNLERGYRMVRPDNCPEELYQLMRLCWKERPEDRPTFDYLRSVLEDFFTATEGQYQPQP
MAPKAPK2, sequence (P49137 whole entry, species assumed): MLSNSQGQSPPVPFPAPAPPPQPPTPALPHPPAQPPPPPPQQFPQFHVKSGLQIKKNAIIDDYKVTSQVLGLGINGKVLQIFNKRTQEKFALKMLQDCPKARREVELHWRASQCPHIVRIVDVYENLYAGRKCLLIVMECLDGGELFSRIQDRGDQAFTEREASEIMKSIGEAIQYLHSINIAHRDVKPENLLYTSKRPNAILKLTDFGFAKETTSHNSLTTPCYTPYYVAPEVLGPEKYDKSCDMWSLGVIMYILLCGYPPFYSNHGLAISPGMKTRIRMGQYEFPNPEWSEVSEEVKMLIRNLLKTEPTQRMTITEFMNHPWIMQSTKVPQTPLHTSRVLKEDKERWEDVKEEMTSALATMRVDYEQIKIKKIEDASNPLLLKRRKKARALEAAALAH
CK1d, sequence (P48730 whole entry): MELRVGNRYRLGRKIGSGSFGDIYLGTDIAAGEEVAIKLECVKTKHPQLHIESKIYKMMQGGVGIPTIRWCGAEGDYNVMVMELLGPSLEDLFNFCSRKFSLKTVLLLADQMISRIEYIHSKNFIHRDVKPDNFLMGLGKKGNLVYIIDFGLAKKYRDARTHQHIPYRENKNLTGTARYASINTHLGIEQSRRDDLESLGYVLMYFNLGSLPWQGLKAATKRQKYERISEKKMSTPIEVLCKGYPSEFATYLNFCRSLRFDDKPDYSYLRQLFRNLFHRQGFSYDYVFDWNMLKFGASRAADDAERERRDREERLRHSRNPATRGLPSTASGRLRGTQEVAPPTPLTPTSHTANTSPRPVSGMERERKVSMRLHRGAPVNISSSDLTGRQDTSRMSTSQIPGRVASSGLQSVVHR

## COCCOCCOCCOCCOCCOCCOCCNC(=O)OCCN1CCN(c2cc(Nc3ncc(C(=O)Nc4c(C)cccc4Cl)s3)nc(C)n2)CC1 [mPEG7-NHCOO-Dasatinib]
ABL(Q252H)
  % Inhibition at 10 nM: 99%
  % Inhibition at 1 μM: 99%
ABL(T315I)
  % Inhibition at 10 nM: 4%
  % Inhibition at 1 μM: 26%
CK1d
  % Inhibition at 10 nM: 0%
  % Inhibition at 1 μM: 9%
FGFR3
  % Inhibition at 10 nM: 2%
  % Inhibition at 1 μM: 10%
FGFR4
  % Inhibition at 10 nM: 0%
  % Inhibition at 1 μM: 2%
Flt3(D835Y)
  % Inhibition at 10 nM: 3%
  % Inhibition at 1 μM: 7%
IKK-beta
  % Inhibition at 10 nM: 2%
  % Inhibition at 1 μM: 2%
LCK
  % Inhibition at 10 nM: 98%
  % Inhibition at 1 μM: 98%
MAPKAPK2
  % Inhibition at 10 nM: 3%
  % Inhibition at 1 μM: 7%
p38-beta2
  % Inhibition at 10 nM: 0%
  % Inhibition at 1 μM: 35%
PDGFR_alpha
  % Inhibition at 10 nM: 46%
  % Inhibition at 1 μM: 98%
TSSK2
  % Inhibition at 10 nM: 3%
  % Inhibition at 1 μM: −2%
YES
  % Inhibition at 10 nM: 100%
  % Inhibition at 1 μM: 102%

## COCCOCCOCCNC(=O)OCCN1CCN(c2cc(Nc3ncc(C(=O)Nc4c(C)cccc4Cl)s3)nc(C)n2)CC1 [mPEG3-NHCOO-Dasatinib]
ABL(Q252H)
  % Inhibition at 10 nM: 98%
  % Inhibition at 1 μM: 99%
ABL(T315I)
  % Inhibition at 10 nM: 1%
  % Inhibition at 1 μM: 36%
CK1d
  % Inhibition at 10 nM: 1%
  % Inhibition at 1 μM: 3%
FGFR3
  % Inhibition at 10 nM: 3%
  % Inhibition at 1 μM: 11%
FGFR4
  % Inhibition at 10 nM: 3%
  % Inhibition at 1 μM: 6%
Flt3(D835Y)
  % Inhibition at 10 nM: 6%
  % Inhibition at 1 μM: 10%
IKK-beta
  % Inhibition at 10 nM: 0%
  % Inhibition at 1 μM: 1%
LCK
  % Inhibition at 10 nM: 97%
  % Inhibition at 1 μM: 98%
MAPKAPK2
  % Inhibition at 10 nM: 1%
  % Inhibition at 1 μM: −1%
p38-beta2
  % Inhibition at 10 nM: 3%
  % Inhibition at 1 μM: 48%
PDGFR_alpha
  % Inhibition at 10 nM: 58%
  % Inhibition at 1 μM: 99%
TSSK2
  % Inhibition at 10 nM: −1%
  % Inhibition at 1 μM: 0%
YES
  % Inhibition at 10 nM: 100%
  % Inhibition at 1 μM: 100%
